Patent US20230219978A1, “COMPOUND HAVING MACROCYCLIC STRUCTURE AND USE THEREOF” (SCINNOHUB PHARMACEUTICAL CO., LTD, priority 2020, published 2023)

Columns and labels:
Format in all cases: biochemical
[1] = target: T1, RET wt (Homo sapiens, UniProt P07949); assay: In vitro kinase activity assay (mobility shift assay), RET wild type; settings: ATP 16 μM, reaction time 60 min
T1 construct: purchased Carna 08-159
Outline: (§1)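 IC50 values come from log-concentration fits of percent inhibition, with compound tested from 1000 nM down in 3-fold steps. Kinase activity was followed as substrate conversion after a 30-240 min room-temperature reaction initiated with ATP.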

[2] = target: T2, RET G810R (Homo sapiens, UniProt P07949, G810R); assay: In vitro kinase activity assay (mobility shift assay), RET G810R; settings: ATP 201 μM, reaction time 4 h
T2 construct: purchased Proqinase 1724-0000-1
T2 sequence (P07949 29-1114 G810R): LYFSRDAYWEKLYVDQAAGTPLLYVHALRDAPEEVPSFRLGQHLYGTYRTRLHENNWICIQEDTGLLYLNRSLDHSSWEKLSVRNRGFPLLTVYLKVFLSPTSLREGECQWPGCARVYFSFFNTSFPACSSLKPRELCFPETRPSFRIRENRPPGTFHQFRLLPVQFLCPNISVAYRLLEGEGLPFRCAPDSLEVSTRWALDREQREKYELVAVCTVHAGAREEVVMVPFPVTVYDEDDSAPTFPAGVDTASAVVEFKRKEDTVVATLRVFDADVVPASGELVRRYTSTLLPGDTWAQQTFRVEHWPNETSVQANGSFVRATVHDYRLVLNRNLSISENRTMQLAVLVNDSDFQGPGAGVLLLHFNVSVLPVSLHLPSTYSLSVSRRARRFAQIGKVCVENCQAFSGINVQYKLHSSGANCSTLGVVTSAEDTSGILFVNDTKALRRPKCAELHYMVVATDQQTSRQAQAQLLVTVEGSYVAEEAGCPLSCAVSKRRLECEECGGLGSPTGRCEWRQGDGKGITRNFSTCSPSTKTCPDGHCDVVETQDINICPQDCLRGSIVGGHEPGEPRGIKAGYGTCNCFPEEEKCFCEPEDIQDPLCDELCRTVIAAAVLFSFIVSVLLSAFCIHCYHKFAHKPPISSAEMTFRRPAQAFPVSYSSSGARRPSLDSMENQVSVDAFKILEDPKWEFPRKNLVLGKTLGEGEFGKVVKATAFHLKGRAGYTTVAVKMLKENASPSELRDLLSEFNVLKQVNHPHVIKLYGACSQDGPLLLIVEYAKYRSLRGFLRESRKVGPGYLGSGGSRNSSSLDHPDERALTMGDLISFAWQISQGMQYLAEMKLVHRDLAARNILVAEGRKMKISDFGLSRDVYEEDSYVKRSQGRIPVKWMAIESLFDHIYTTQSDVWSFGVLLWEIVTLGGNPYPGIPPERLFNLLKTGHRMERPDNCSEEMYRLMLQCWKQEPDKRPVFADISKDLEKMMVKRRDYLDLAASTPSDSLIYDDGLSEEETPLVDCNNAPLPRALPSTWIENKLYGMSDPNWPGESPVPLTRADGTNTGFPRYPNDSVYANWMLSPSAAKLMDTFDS
Outline: as §1

[3] = target: T3, RET V804M (Homo sapiens, UniProt P07949, V804M); assay: In vitro kinase activity assay (mobility shift assay), RET V804M; settings: ATP 5.4 μM, reaction time 60 min
T3 construct: purchased signalchem R02-12GG
T3 sequence (P07949 29-1114 V804M): as the sequence (P07949 29-1114 G810R) above, with V776M, R782G counted along it
Outline: as §1

[4] = target: T4, TRKa (Homo sapiens, UniProt P04629); assay: In vitro kinase activity assay (mobility shift assay), TRKa; settings: ATP 47.8 μM, reaction time 30 min
T4 construct: purchased Carna 08-186
T4 sequence (P04629 33-796): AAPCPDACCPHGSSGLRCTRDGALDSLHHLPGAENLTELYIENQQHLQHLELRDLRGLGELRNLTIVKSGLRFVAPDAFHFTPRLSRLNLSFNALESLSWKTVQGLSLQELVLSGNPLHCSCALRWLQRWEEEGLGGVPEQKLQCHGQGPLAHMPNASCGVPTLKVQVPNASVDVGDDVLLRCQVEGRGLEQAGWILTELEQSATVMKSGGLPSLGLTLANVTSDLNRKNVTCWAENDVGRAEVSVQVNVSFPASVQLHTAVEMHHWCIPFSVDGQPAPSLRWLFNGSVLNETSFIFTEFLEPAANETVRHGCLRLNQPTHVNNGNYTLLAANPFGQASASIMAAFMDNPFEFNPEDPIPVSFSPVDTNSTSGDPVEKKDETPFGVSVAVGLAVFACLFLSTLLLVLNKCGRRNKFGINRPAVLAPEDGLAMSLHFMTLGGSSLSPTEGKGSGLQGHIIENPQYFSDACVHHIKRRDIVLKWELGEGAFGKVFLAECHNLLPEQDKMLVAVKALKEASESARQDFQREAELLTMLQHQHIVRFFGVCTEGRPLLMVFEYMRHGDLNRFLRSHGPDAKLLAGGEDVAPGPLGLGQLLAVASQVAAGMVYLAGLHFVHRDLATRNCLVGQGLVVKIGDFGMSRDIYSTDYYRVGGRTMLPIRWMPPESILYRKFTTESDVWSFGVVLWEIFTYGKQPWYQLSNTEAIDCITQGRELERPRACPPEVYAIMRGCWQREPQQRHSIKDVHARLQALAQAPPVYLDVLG
Outline: as §1

[5] = target: T5, SRC (Homo sapiens, UniProt P12931); assay: In vitro kinase activity assay (mobility shift assay), SRC; settings: ATP 19 μM, reaction time 30 min
T5 construct: purchased Carna 08-173
T5 sequence (P12931 whole entry): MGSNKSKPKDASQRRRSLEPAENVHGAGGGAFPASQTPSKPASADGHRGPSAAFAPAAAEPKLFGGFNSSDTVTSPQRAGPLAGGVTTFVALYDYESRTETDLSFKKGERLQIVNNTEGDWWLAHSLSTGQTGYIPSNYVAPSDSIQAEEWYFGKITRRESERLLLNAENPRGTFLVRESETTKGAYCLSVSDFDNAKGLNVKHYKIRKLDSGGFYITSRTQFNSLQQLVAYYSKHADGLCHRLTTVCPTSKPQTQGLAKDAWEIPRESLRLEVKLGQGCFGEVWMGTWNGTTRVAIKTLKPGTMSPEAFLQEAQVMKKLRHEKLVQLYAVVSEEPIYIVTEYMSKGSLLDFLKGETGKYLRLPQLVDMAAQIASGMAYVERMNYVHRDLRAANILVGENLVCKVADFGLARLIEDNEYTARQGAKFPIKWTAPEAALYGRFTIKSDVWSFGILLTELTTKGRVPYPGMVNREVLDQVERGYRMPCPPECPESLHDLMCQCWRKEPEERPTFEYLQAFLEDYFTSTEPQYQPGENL
Experimental: (§2) The IC50 (half inhibitory concentration) values of the compounds were used as an indicator to evaluate the inhibitory effect of the compound on RET wild-type, RET mutant, TRKa, SRC, BTK and/or mutated BTK kinase.
(§3) Using the method of Mobility shift assay, the compounds were tested for inhibitory activity against the following kinases: RET wild type, RET mutant, TRKa, SRC, BTK and/or mutated BTK. The initial concentration of the test compound was 1000 nM, 3-fold dilution, 10 concentrations, detected in a well for each concentration.
(§4) 20 mM hydroxyethylpiperazineethanesulfonic acid (Hepes) (pH 7.5) buffer, 10 mM MgCl2, 1 mM ethylene glycol bis(aminoethyl ether)tetraacetic acid (EGTA), 0.02% polyoxyethylene lauryl ether (Brij35), 0.02 mg/ml […] (BSA), 0.1 mM Na3VO4, 2 mM dithiothreitol (DTT), 1% DMSO.
(§5) The test compounds were dissolved in 100% dimethyl sulfoxide (DMSO) system, and prepared as 10 mM for use, and stored in a nitrogen cabinet away from light.
(§6) • (1) Preparing 1× kinase reaction buffer. • (2) Preparation of compound concentration gradient: the initial concentration of the compounds was 1000 nM, which was diluted as 100-fold final concentration of solution in 100% dimethyl sulfoxide (DMSO) in a 384-well plate. The compound was accurately 3-fold diluted with the kinase buffer solution, 10 concentrations in total, and the final concentration was 0.0508 nM. The 100-fold final concentration of solution in 100% dimethyl sulfoxide (DMSO) was obtained by dilution in 384 source plate. The liquid separator Echo 550 was used to transfer 250 nl of 100-fold final concentration of compound to the target 384 well plate. 250 nl of DMSO was added to the positive and negative control wells. • (3) 2.5-fold final concentration of kinase solution was prepared by the 1× kinase buffer. • (4) 10 4, of 2.5-fold final concentration of kinase solution was added to the compound well and the positive control well, respectively; 10 4, of 1× kinase buffer was added to the negative control well. • (5) After centrifuging at 1000 rpm for 30 second, the reaction plate was shaken and mixed, followed by incubation at room temperature for 10 min. • (6) a mixed solution of 25/15-fold final concentration of adenosine triphosphate (ATP) and kinase substrate was prepared by 1× kinase buffer. • (7) The mixed solution (15 μL) of 25/15-fold final concentration of adenosine triphosphate (ATP) and substrate was added to initiate the reaction. • (8) 384-well plate was centrifuged at 1000 rpm for 30 second, shaken and mixed well, and then incubated at room temperature for 30-240 min. • (9) After stopping the kinase reaction, the plate was centrifugated at 1000 rpm for 30 second, shaken and mixed well. • (10)The conversion rate was read with Caliper EZ Reader.
(§7) wherein Conversion%_sample is the conversion rate reading of the sample; Conversion%_min: the mean value of negative control wells, representing the conversion rate reading of wells without enzymes; Conversion%_max: the mean value of positive control wells, representing the conversion rate reading of wells without compound inhibition.
(§8) The log value of concentration was taken as the X axis, and the percentage inhibition rate was taken as the Y axis. Graphpad 6.0 analysis software was used to fit the dose-response curve, so as to obtain the IC50 value of each compound on the enzyme activity

[6] = target: T6, BTK (Homo sapiens, UniProt Q06187); assay: In vitro kinase activity assay (mobility shift assay), BTK; settings: ATP 71 μM, reaction time 30 min
T6 construct: purchased Carna 08-180
T6 sequence (Q06187 whole entry): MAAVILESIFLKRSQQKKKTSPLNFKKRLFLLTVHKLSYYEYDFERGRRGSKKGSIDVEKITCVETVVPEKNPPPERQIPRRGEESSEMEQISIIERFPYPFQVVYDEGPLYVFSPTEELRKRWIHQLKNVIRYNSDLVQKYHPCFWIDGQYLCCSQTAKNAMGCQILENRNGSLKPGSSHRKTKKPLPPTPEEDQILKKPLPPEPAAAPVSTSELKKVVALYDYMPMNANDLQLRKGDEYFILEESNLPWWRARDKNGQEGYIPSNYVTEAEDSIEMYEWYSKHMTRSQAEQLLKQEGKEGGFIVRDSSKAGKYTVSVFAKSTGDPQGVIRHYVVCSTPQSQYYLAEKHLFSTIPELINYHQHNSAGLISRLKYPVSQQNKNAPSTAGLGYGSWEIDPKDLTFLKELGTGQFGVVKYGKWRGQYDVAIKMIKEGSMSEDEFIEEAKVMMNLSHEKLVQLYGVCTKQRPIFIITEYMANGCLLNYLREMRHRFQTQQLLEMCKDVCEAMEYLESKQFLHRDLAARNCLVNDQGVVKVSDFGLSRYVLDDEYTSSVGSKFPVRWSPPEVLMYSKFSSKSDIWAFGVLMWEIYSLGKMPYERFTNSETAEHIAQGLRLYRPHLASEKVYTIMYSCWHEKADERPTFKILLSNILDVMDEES
Outline: as §1

[7] = target: T7, BTK C481S (Homo sapiens, UniProt Q06187, C481S); assay: In vitro kinase activity assay (mobility shift assay), BTK C481S; settings: ATP 90 μM, reaction time 30 min
T7 construct: purchased Carna 08-547
T7 sequence (Q06187 whole entry C481S): as the sequence (Q06187 whole entry) above, with C481S counted along it
Experimental: as §2, §3, §4, §5, §6, §7, §8

T1 sequence (P07949 29-1114): as the sequence (P07949 29-1114 G810R) above, with R782G counted along it

| Compound | IC50 [1] | IC50 [2] | IC50 [3] | IC50 [4] | IC50 [5] | IC50 [6] | IC50 [7] |
| --- | --- | --- | --- | --- | --- | --- | --- |
| C[C@H]1CNC(=O)c2cnn3cc(-c4ccccc4Cl)c(nc23)NCc2cc(F)cnc2O1 [Compound 4, (S, 1^3E, 1^4E)-1^6-(2-chlorophenyl)-4^5-fluoro-6-methyl-5-oxa-2,8-diaza-1(5,3)-pyrazolo[1,5-a]pyrimidina-4(3,2)-pyridinacyclononaphan-9-one] | 2.2 nM | 21 nM | 161 nM | 294 nM | 0.096 nM | 3.39 nM | 9.84 nM |
| C[C@H]1CNC(=O)c2cnn3cc(-c4ccc(Oc5ccccc5)cc4)c(nc23)NCc2cc(F)cnc2O1 [Compound 10, (S, 1^3E, 1^4E)-1^6-(4-phenoxyphenyl)-4^5-fluoro-6-methyl-5-oxa-2,8-diaza-1(5,3)-pyrazolo[1,5-a]pyrimidina-4(3,2)-pyridinacyclononaphan-9-one] | 144 nM | > 10000 nM | > 10000 nM | > 10000 nM | > 10000 nM | > 10000 nM | > 10000 nM |
| CC(=O)Nc1ccc(-c2cn3ncc4c3nc2NCc2cc(F)cnc2O[C@@H](C)CNC4=O)cc1 [Compound 18] | > 10000 nM | > 10000 nM | > 10000 nM |  | > 10000 nM | > 10000 nM | > 10000 nM |
| CNC(=O)c1ccc(-c2cn3ncc4c3nc2NCc2cc(F)cnc2O[C@@H](C)CNC4=O)cc1 [Compound 19, 4-((S, 1^3E, 1^4E)-4^5-fluoro-6-methyl-9-oxo-5-oxa-2,8-diaza-1(5,3)-pyrazolo[1,5-a]pyrimidin-4(3,2)-pyridinacyclononaphan-1^6-yl)—N-methylbenz amide] | 48.9 nM | > 10000 nM | > 10000 nM |  | > 10000 nM | > 10000 nM | > 10000 nM |
| C[C@H]1CNC(=O)c2cnn3cc(-c4ccccc4)c(nc23)NCc2cc(F)cnc2O1 [Example 1, (S, 1^3E, 1^4E)-4^5-fluoro-6-methyl-1^6-phenyl-5-oxa-2,8-diaza-1(5,3)-pyrazolo[1,5-a]pyrimidina-4(3,2)-pyridinacyclononaphan-9-one] | 11 nM | 42.1 nM | > 10000 nM | > 10000 nM | 10.8 nM | 33.5 nM | 31.3 nM |
| CNc1ccc(-c2c3nc4c(cnn4c2N)C(=O)NC[C@H](C)Oc2ncc(F)cc2CN3)cc1 [Example 54, (S, 1^3E, 1^4E)-1^7-amino-4^5-fluoro-6-methyl-1^6-(4-(methylamino)phenyl)-5-oxo-2,8-diaza-1(5,3)-pyrazolo[1,5-a]pyrimidin-4(3,2)-pyridinacyclononaphan-9-one] | 105 nM | > 1000 nM | > 1000 nM |  | 2.1 nM | 48 nM | 104 nM |
| C[C@H]1CNC(=O)c2cnn3c(N)c(-c4ccc(NC(=O)OCC5CC5)cc4)c(nc23)NCc2cc(F)cnc2O1 [Example 63, cyclopropylmethyl (4-((S, 1^3E, 1^4E)-1^7-amino-4^5-fluoro-6-methyl-9-oxo-5-oxo-2,8-diaza-1(5,3)-pyrazolo[1,5-a]pyrimidin-4(3,2)-pyridinacyclononaphan-1^6-yl)phenyl)carbamate] | 1.2 nM | 22 nM | 3.5 nM | 65 nM | 2.8 nM | 33 nM |  |

Results, then the molecule that gave them:

| IC50 [1] | IC50 [2] | IC50 [3] | IC50 [4] | IC50 [5] | IC50 [6] | IC50 [7] | Compound |
| --- | --- | --- | --- | --- | --- | --- | --- |
| 0.629 nM | 17.2 nM | 3.25 nM |  | 38.4 nM | 15.4 nM | 16.9 nM | COC(=O)Nc1ccc(-c2cn3ncc4c3nc2NCc2cc(F)cnc2O[C@@H](C)CNC4=O)c(Cl)c1 [Compound 27] |
| 0.359 nM | 12 nM | 9.18 nM |  | 0.456 nM | 1.11 nM | 0.96 nM | C[C@H]1CNC(=O)c2cnn3c(N)c(-c4ccccc4)c(nc23)NCc2cc(F)cnc2O1 [Compound 28, (S, 1^3E, 1^4E)-1^7-amino-4^5-fluoro-6-methyl-1^6-phenyl-5-oxa-2,8-diaza-1(5,3)-pyrazolino[1,5-a]pyrimidin-4(3,2)-pyridinacyclononaphan-9-one] |
| 1.2 nM | 49.7 nM |  |  | 0.13 nM | 1.5 nM | 0.96 nM | Cc1ccc(-c2c3nc4c(cnn4c2N)C(=O)NC[C@H](C)Oc2ncc(F)cc2CN3)cc1 [Example 56] |
